For 22 compounds, IC50 results are on record in patent US20100056524A1, “Compound” (priority 2008, published 2010).

The structures appear in SMILES notation. Structures can show the parent of a compound that is named as a salt.

For the assay, the target named is T1, TBK1 (Homo sapiens, UniProt Q9UHD2).
T1 construct: All protein kinases were of human origin and encoded full length proteins, unless indicated otherwise; His6; made in house; host or cells: insect Sf21 cells
T1 sequence (Q9UHD2 1-729): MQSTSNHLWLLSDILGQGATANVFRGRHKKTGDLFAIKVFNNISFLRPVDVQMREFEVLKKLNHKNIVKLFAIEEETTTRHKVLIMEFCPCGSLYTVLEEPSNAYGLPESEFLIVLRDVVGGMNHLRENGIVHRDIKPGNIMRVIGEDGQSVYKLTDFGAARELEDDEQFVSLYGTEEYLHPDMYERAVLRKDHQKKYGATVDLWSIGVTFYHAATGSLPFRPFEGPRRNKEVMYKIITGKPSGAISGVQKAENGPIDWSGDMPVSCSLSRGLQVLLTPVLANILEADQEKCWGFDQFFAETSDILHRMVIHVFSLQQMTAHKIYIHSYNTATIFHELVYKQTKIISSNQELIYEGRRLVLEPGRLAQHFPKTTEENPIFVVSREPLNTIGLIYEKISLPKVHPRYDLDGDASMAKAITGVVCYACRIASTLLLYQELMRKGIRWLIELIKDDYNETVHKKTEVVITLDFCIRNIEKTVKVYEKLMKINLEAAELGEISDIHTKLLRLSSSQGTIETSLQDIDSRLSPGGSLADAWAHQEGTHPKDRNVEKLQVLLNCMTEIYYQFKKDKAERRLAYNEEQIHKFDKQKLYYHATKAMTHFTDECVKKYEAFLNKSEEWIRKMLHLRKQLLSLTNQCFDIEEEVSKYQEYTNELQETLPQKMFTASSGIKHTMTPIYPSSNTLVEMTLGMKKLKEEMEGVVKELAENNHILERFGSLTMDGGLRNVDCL
Nature of the assay: TBK1 protein kinase assay ([γ-33P]ATP, P81 filterplates). The class given is biochemical. To be noted: 50 μM ATP; read-out: Potency (TBK1 IC50 potency score). The text has this:
All protein kinases were of human origin and encoded full length proteins, unless indicated otherwise. They were either expressed as glutathione S-transferase (GST) fusion proteins in Escherichia Coli or as hexahistidine (His6)-tagged proteins in insect Sf21 cells. GST fusion proteins were purified by affinity chromatography on glutathione-Sepharose, and His6-tagged proteins on nickel/nitriloacetate-agarose. The procedures for expressing some of the protein kinases used herein have been detailed previously.^8,9 The following sections outline the DNA vectors synthesised and the procedures used to express and purifying protein kinases that have not been reported previously.
The following kinases were expressed in Sf21 cells: Aurora B and Aurora C, extra-cellular signal-regulated kinase 8 (ERK8), microtubule affinity regulating kinase 3 (MARK3), protein kinase Bα[118-480][S473D], protein kinase Bβ (PKBβ[120-481][S474D], 3-phosphoinositide-dependent protein kinase-1 [52-556]
Assays were performed for 30 min using Multidrop Micro reagent dispensers (Thermo Electron Corporation, Waltham, Mass. 02454, USA) in a 96-well format. The concentration of magnesium acetate in the assays was 10 mM and the [γ-33P] ATP (800 cpm/pmol) was used at 5, 20 or 50 μM as indicated, in order to be at or below the Km for ATP for each enzyme. Protein kinases assayed at 5 μM ATP were: —ERK1, ERK8, PKBα, MARK3, Aurora C. Protein kinases assayed at 20 μM ATP were: —JNK1, PDK1, CHK1, CHK2, CDK2 and Aurora B. Protein kinases assayed at 50 μM ATP were: —MNK2, IKKepsilon and TBK1.
The assays were initiated with MgATP, stopped by addition of 5 μl of 0.5 M orthophosphoric acid and spotted on to P81 filterplates using a unifilter harvester (PerkinElmer, Boston, Mass. 02118, USA). The IC50 values of inhibitors were determined after carrying out assays at 10 different concentrations of each compound.
ERK1 and ERK8 were both assayed against myelin basic protein (MBP, 0.33 mg/ml). MARK3 was assayed against the peptide […] (300 μM), MNK2 against the eIF4E protein (0.5 mg/ml). PKBβ was assayed against the peptide […] (30 μM). TBK1 were assayed against ([…]) (300 μM). The substrates used for other protein kinases were described previously.^8,9
Unless stated otherwise, enzymes were diluted in 50 mM Tris/HCl pH 7.5, 0.1 mM EGTA, 1 mg/ml BSA, 0.1% (v/v) 2-mercaptoethanol and assayed in 50 mM Tris/HCl pH 7.5, 0.1 mM EGTA, 0.1% (v/v) 2-mercaptoethanol.
As usually defined, the IC50 is the midpoint of a concentration-inhibition curve. Regarding `O=C(NCCCNc1nc(Nc2cccc(Br)c2)ncc1C1CC1)C1CCC1` [Example 141, Cyclobutanecarboxylic acid {3-[2-(3-bromo-phenylamino)-5-cyclopropyl-pyrimidin-4-ylamino]-propyl}-amide], the half-maximal inhibitory concentration (IC50) is under 100 nM. As for `O=C(NCCCNc1nc(Nc2cccc(C(=O)N3CCOCC3)c2)ncc1C1CC1)C1CCC1` [Example 75, Cyclobutanecarboxylic acid (3-{5-cyclopropyl-2-[3-(morpholine-4-carbonyl)-phenylamino]-pyrimidin-4-ylamino}-propyl)-amide], the figure is under 100 nM; as for `CC(C)CN(C)Cc1cccc(Nc2ncc(C3CC3)c(NCCCNC(=O)C3CCC3)n2)c1` [Example 133, Cyclobutanecarboxylic acid [3-(5-cyclopropyl-2-{3-[(isobutyl-methyl-amino)-methyl]-phenylamino}-pyrimidin-4-ylamino)-propyl]-amide], under 100 nM; as for `CN1CCC(Oc2ccc(Nc3ncc(C4CC4)c(NCCCNC(=O)C4CCC4)n3)cn2)CC1` [Example 195, Cyclobutanecarboxylic acid (3-{5-cyclopropyl-2-[6-(1-methyl-piperidin-4-yloxy)-pyridin-3-ylamino]-pyrimidin-4-ylamino}-propyl)-amide], under 100 nM. Then `O=C(NCCCNc1nc(Nc2ccc(NCCN3CCOCC3)nc2)ncc1C1CC1)C1CCC1` [Example 158, Cyclobutanecarboxylic acid (3-{5-cyclopropyl-2-[6-(2-morpholin-4-yl-ethylamino)-pyridin-3-ylamino]-pyrimidin-4-ylamino}-propyl)-amide], with under 100 nM; and `O=C(NCc1ncc[nH]1)c1cccc(Nc2ncc(C3CC3)c(NCCCNC(=O)C3CCC3)n2)c1` [Example 89, 3-{4-[3-(Cyclobutanecarbonyl-amino)-propylamino]-5-cyclopropyl-pyrimidin-2-ylamino}-N-(1H-imidazol-2-ylmethyl)-benzamide. Hydrochloride salt], with under 100 nM. Regarding `O=C(NCCCNc1nc(Nc2ccc(Cl)nc2)ncc1C1CC1)C1CCC1` [Example 99, Cyclobutanecarboxylic acid {3-[2-(6-chloro-pyridin-3-ylamino)-5-cyclopropyl-pyrimidin-4-ylamino]-propyl}-amide], the IC50 is under 100 nM. As for `CC(=O)Nc1cccc(Nc2ncc(C3CC3)c(NCCCNC(=O)C3CCCC3)n2)c1` [Example 67, Cyclopentanecarboxylic acid {3-[2-(3-acetylamino-phenylamino)-5-cyclopropyl-pyrimidin-4-ylamino]-propyl}-amide], the IC50 was under 100 nM.

For `O=C(NCCCNc1nc(Nc2cccc(F)c2)ncc1C1CC1)c1nc[nH]n1` [Example 9, 1H-1,2,4-Triazole-3-carboxylic acid {3-[5-cyclopropyl-2-(3-fluoro-phenylamino)-pyrimidin-4-ylamino]-propyl}-amide trifluoroacetic acid salt], the IC50 is 100 to 1000 nM. As for `O=C(O)Cc1cccc(Nc2ncc(C3CC3)c(NCCCNC(=O)C3CCC3)n2)c1` [Example 95, (3-{4-[3-(Cyclobutanecarbonyl-amino)-propylamino]-5-cyclopropyl-pyrimidin-2-ylamino}-phenyl)-acetic acid. Hydrochloride], the figure is under 100 nM. As for `O=C(NCCCNc1nc(Nc2cccc(F)c2)ncc1C1CC1)C1CCCCC1` [Example 3, Cyclohexanecarboxylic acid {3-[5-cyclopropyl-2-(3-fluoro-phenylamino)-pyrimidin-4-ylamino]-propyl}-amide trifluoroacetic acid salt], the figure is under 100 nM.

As to `O=C(NCCCNc1nc(Nc2cccc(CO)c2)ncc1C1CC1)C1CCC1` [Example 70, Cyclobutanecarboxylic acid {3-[5-cyclopropyl-2-(3-hydroxymethyl-phenylamino)-pyrimidin-4-ylamino]-propyl}-amide. xHCl salt], the IC50 was under 100 nM.

For the compound `CC(c1cccc(Nc2ncc(C3CC3)c(NCCCNC(=O)C3CCC3)n2)c1)N1CCOCC1` (stereo not shown) [Example 123, Cyclobutanecarboxylic acid (3-{5-cyclopropyl-2-[3-(1-morpholin-4-yl-ethyl)-phenylamino]-pyrimidin-4-ylamino}-propyl)-amide], the IC50 was under 100 nM.

`O=C(NCCCNc1nc(Nc2ccc3[nH]ncc3c2)ncc1C1CC1)C1CCC1` [Example 130, Cyclobutanecarboxylic acid {3-[5-cyclopropyl-2-(1H-indazol-5-ylamino)-pyrimidin-4-ylamino]-propyl}-amide]: the IC50 is under 100 nM. As for `Cc1ccc(C(=O)NCCCNc2nc(Nc3cccc(F)c3)ncc2C2CC2)s1` [Example 12, 5-Methyl-thiophene-2-carboxylic acid {3-[5-cyclopropyl-2-(3-fluoro-phenylamino)-pyrimidin-4-ylamino]-propyl}-amide], the figure is 100 to 1000 nM; as for `O=C(NCCCNc1nc(Nc2cnn(CCN3CCCCC3)c2)ncc1C1CC1)C1CCC1` [Example 160, Cyclobutanecarboxylic acid (3-{5-cyclopropyl-2-[1-(2-piperidin-1-yl-ethyl)-1H-pyrazol-4-ylamino]-pyrimidin-4-ylamino}-propyl)-amide], under 100 nM. For the compound `O=C(NCCCNc1nc(Nc2ccc(N3CCOCC3)nc2)ncc1C1CC1)c1cccs1` [Example 54, Thiophene-2-carboxylic acid {3-[5-cyclopropyl-2-(6-morpholin-4-yl-pyridin-3-ylamino)-pyrimidin-4-ylamino]-propyl}-amide], the IC50 is under 100 nM. For the compound `Cn1ccc(-c2cccc(Nc3ncc(C4CC4)c(NCCCNC(=O)C4CCC4)n3)c2)n1` [Example 84, Cyclobutanecarboxylic acid (3-{5-cyclopropyl-2-[3-(1-methyl-1H-pyrazol-3-yl)-phenylamino]-pyrimidin-4-ylamino}-propyl)-amide], the IC50 is under 100 nM. Then `O=C(NCCCNc1nc(Nc2ccc(N3CCOCC3)cc2)ncc1C1CC1)C1CCC1` [Example 166, Cyclobutanecarboxylic acid {3-[5-cyclopropyl-2-(4-morpholin-4-yl-phenylamino)-pyrimidin-4-ylamino]-propyl}-amide], with under 100 nM; and `O=C(NCCCNc1nc(Nc2ccc(CN3CCC(F)(F)CC3)nc2)ncc1C1CC1)C1CCC1` [Example 148, Cyclobutanecarboxylic acid (3-{5-cyclopropyl-2-[6-(4,4-difluoro-piperidin-1-ylmethyl)-pyridin-3-ylamino]-pyrimidin-4-ylamino}-propyl)-amide], with under 100 nM. Regarding `O=C(NCCCNc1nc(Nc2cccc(Cn3cncn3)c2)ncc1C1CC1)C1CCC1` [Example 83, Cyclobutanecarboxylic acid {3-[5-cyclopropyl-2-(3-1,2,4-triazol-1-ylmethyl-phenylamino)-pyrimidin-4-ylamino]-propyl}-amide], the IC50 is under 100 nM. With `O=C(NCCCNc1nc(Nc2ccc3c(cnn3C3CC3)c2)ncc1C1CC1)C1CCC1` [Example 210, Cyclobutanecarboxylicacid{3-[5-cyclopropyl-2-(1-cyclopropyl-1H-indazol-5-ylamino)-pyrimidin-4-ylamino]-propyl}-amide], the IC50 was under 100 nM.
